Results from patent publication US12180207B2 (ARRAY BIOPHARMA INC., priority 2018, dated 2024).

Legend:
[1] = biological target: dephosphorylated FGFR1 (SEQ ID NO: 1, amino acids 458 to 765) (Homo sapiens (Human), UniProt P11362); test: FGFR enzyme binding assay (HTRF tracer displacement), FGFR1; details: 5 nM dephosphorylated FGFR1, average of multiple determinations if made
Outline: (§1)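 Compounds were tested for displacement of a tracer from human FGFR kinase in a time-resolved FRET binding format. After 60 minutes at 22° C, signal was read at two wavelengths and converted to percent of control, normalised between untreated wells and 1 μM reference inhibitor.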

[2] = biological target: phosphorylated FGFR3 (SEQ ID NO: 5, amino acids 449 to 759) (Homo sapiens (Human), UniProt P22607); test: FGFR enzyme binding assay (HTRF tracer displacement), FGFR3; details: 5 nM phosphorylated FGFR3, average of multiple determinations if made
Outline: as §1

[3] = biological target: recombinant human FGFR2 cytoplasmic domain (amino acids 403-822) (Homo sapiens (Human), UniProt P21802); test: FGFR2 enzyme activity assay (LanthaScreen TR-FRET); format: biochemical; details: 15 μM ATP, 20 min incubation at 22° C., average of multiple determinations if made, read-out: FGFR2 Enz FRET IC50
Outline: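 His-tagged FGFR2 cytoplasmic domain ([…]) with 100 nM Alexa Fluor 647-poly-GT peptide and 15 μM ATP in HEPES/MgCl2/Triton buffer, pH 7.5, 2% DMSO, 20 min at 22 °C. EDTA-quenched, Eu-PY20 antibody added, TR-FRET read after 60 min.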

dephosphorylated FGFR1 (SEQ ID NO: 1, amino acids 458 to 765), sequence (P11362 458-765): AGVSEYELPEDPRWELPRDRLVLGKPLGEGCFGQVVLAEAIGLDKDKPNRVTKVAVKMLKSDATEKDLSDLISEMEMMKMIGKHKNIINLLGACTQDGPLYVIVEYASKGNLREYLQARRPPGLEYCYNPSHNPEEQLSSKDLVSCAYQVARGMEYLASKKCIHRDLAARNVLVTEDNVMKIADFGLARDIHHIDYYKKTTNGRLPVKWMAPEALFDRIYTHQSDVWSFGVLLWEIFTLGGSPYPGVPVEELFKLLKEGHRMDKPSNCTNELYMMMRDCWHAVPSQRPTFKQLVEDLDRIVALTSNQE
phosphorylated FGFR3 (SEQ ID NO: 5, amino acids 449 to 759), sequence (P22607 449-759): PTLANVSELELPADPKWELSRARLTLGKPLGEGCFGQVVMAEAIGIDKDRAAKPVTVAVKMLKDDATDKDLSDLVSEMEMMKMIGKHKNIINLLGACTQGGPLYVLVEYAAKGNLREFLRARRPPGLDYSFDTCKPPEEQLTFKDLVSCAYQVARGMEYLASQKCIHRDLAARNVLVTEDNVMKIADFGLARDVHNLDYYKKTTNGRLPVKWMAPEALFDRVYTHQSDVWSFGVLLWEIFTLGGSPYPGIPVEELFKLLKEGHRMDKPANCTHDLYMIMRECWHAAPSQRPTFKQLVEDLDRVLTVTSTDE
recombinant human FGFR2 cytoplasmic domain (amino acids 403-822), sequence (P21802 402-821): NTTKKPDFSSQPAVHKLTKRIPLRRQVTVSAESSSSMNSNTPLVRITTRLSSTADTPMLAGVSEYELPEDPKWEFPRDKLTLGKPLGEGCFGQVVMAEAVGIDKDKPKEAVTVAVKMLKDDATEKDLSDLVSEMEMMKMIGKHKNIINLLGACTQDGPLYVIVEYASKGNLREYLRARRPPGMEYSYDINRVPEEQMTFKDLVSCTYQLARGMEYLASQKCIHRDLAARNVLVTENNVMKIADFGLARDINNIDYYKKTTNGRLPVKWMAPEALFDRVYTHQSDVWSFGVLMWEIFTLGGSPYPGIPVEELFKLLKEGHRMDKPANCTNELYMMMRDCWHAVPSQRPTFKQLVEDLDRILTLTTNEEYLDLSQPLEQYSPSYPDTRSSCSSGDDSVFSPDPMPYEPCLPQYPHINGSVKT

IC50 [1] [nM] | IC50 [2] [nM] | IC50 [3] [nM] | Compound
61 | 8 | 5 | C=CC(=O)N(C)c1ccc(C(=O)N2CCC(n3cc(-c4cc(OC)c5c(C#N)cnn5c4)cn3)CC2)cc1 [Example 178, N-(4-(4-(4-(3-cyano-4-methoxypyrazolo[1,5-a]pyridin-6-yl)-1H-pyrazol-1-yl)piperidine-1-carbonyl)phenyl)-N-methylacrylamide]
7 | 3 | 3 | C=CC(=O)N1CC(C(=O)N2CCC(n3cc(-c4cc(-c5ccc(NC(=O)C6CC6)cc5F)c5c(C#N)cnn5c4)cn3)CC2)C1 [Example 130, N-(4-(6-(1-(1-(1-acryloylazetidine-3-carbonyl)piperidin-4-yl)-1H-pyrazol-4-yl)-3-cyanopyrazolo[1,5-a]pyridin-4-yl)-3-fluorophenyl)cyclopropane-carboxamide]
90 | 8 | 10 | COc1cc(-c2cnn(C3CCN(CC4CN(C(=O)/C=C/CN5CCCCC5)C4)CC3)c2)cn2ncc(C#N)c12 [Example 175, (E)-4-methoxy-6-(1-(1-((1-(4-(piperidin-1-yl)but-2-enoyl)azetidin-3-yl)methyl)piperidin-4-yl)-1H-pyrazol-4-yl)pyrazolo[1,5-a]pyridine-3-carbonitrile]
194 | 12 | 6 | COc1cc(-c2cnn(C3CCN(C(=O)C4CN(C(=O)/C=C/CN(C)C)C4)CC3)c2)cn2ncc(Cl)c12 [Example 174]
245 | 39 | 2 | C=CC(=O)N1CCC(F)(C(=O)N2CCC(n3cc(-c4cc(OC)c5c(C#N)cnn5c4)cn3)CC2)CC1 [Example 13, 6-(1-(1-(1-acryloyl-4-fluoropiperidine-4-carbonyl)piperidin-4-yl)-1H-pyrazol-4-yl)-4-methoxypyrazolo[1,5-a]pyridine-3-carbonitrile]
33 | 2 | 2 | COc1cc(-c2cnn(C3CCN(C(=O)C4CN(C(=O)/C=C/CN(C)C)C4)CC3)c2)cn2ncc(C#N)c12 [Example 143, (E)-6-(1-(1-(1-(4-(dimethylamino)but-2-enoyl)azetidine-3-carbonyl)piperidin-4-yl)-1H-pyrazol-4-yl)-4-methoxypyrazolo [1,5-a]pyridine-3-carbonitrile]
119 | 9 | 17 | C=CC(=O)N1CC(OC)(C(=O)N2CCC(n3cc(-c4cc(OC)c5c(Cl)cnn5c4)cn3)CC2)C1 [Example 124, 1-(3-(4-(4-(3-chloro-4-methoxypyrazolo[1,5-a]pyridin-6-yl)-1H-pyrazol-1-yl)piperidine-1-carbonyl)-3-methoxyazetidin-1-yl)prop-2-en-1-one]
147 | 11 | 6 | C=CC(=O)N1CC(C(=O)N2CCC(n3cc(-c4cc(OCC)c5c(C#N)cnn5c4)cn3)CC2)C1 [Example 126, 6-(1-(1-(1-acryloylazetidine-3-carbonyl)piperidin-4-yl)-1H-pyrazol-4-yl)-4-ethoxypyrazolo[1,5-a]pyridine-3-carbonitrile]
42 | 3 | 3 | C=CC(=O)N1CC(C(=O)N2CCC(c3ccc(-c4cc(OC)c5c(C#N)cnn5c4)cc3)CC2)C1 [Example 101, 6-(4-(1-(1-acryloylazetidine-3-carbonyl)piperidin-4-yl)phenyl)-4-methoxypyrazolo[1,5-a]pyridine-3-carbonitrile]
210 | 25 | 7 | C=CC(=O)N1CCC(n2cc(-c3cc(OC)c4c(C#N)cnn4c3)cn2)CC1 [Example 11, 6-(1-(1-acryloylpiperidin-4-yl)-1H-pyrazol-4-yl)-4-methoxypyrazolo[1,5-a]pyridine-3-carbonitrile]
73 | 8 | 7 | C=CC(=O)N1CC2(CCN(C(=O)N3CCC(n4cc(-c5cc(OC)c6c(C#N)cnn6c5)cn4)CC3)C2)C1 [Example 8, 6-(1-(1-(2-acryloyl-2,6-diazaspiro[3.4]octane-6-carbonyl)piperidin-4-yl)-1H-pyrazol-4-yl)-4-methoxypyrazolo[1,5-a]pyridine-3-carbonitrile]
71 | 7 | 13 | C=CC(=O)N1CC(CN2CCC(n3cc(-c4cc(OC)c5c(C#N)cnn5c4)cn3)CC2)C1 [Example 132, 6-(1-(1-((1-acryloylazetidin-3-yl)methyl)piperidin-4-yl)-1H-pyrazol-4-yl)-4-methoxypyrazolo[1,5-a]pyridine-3-carbonitrile]
60 | 4 | 3 | COc1cc(-c2cnn(C3CCN(C(=O)C4CN(C(=O)/C=C/CN5CCCCC5)C4)CC3)c2)cn2ncc(C#N)c12 [Example 145, (E)-4-methoxy-6-(1-(1-(1-(4-(piperidin-1-yl)but-2-enoyl)azetidine-3-carbonyl)piperidin-4-yl)-1H-pyrazol-4-yl)pyrazolo[1,5-a]pyridine-3-carbonitrile]
271 | 34 | 9 | C=CC(=O)N1CC(C(=O)N2CCC(n3cc(-c4cc(C(C)C)c5c(C#N)cnn5c4)cn3)CC2)C1 [Example 129, 6-(1-(1-(1-acryloylazetidine-3-carbonyl)piperidin-4-yl)-1H-pyrazol-4-yl)-4-isopropylpyrazolo[1,5-a]pyridine-3-carbonitrile]
59 | 10 | 5 | C=CC(=O)N1CC(C(=O)N2CCC(n3cc(-c4cc(OC(C)C)c5c(C#N)cnn5c4)cn3)CC2)C1 [Example 127, 6-(1-(1-(1-acryloylazetidine-3-carbonyl)piperidin-4-yl)-1H-pyrazol-4-yl)-4-isopropoxypyrazolo[1,5-a]pyridine-3-carbonitrile]
52 | 9 | 6 | C=CC(=O)N1C[C@H]2CN(C(=O)N3CCC(n4cc(-c5cc(OC)c6c(C#N)cnn6c5)cn4)CC3)C[C@H]21 [Example 7, 6-(1-(1-((1S,5S)-6-acryloyl-3,6-diazabicyclo[3.2.0]heptane-3-carbonyl)piperidin-4-yl)-1H-pyrazol-4-yl)-4-methoxypyrazolo[1,5-a]pyridine-3-carbonitrile]
218 | 19 | 6 | C=CC(=O)N1CC(C(=O)N2CCC(n3cnc(-c4cc(OC)c5c(C#N)cnn5c4)c3)CC2)C1 [Example 98, 6-(1-(1-(1-acryloylazetidine-3-carbonyl)piperidin-4-yl)-1H-imidazol-4-yl)-4-methoxypyrazolo[1,5-a]pyridine-3-carbonitrile]
157 | 18 | 4 | C=CC(=O)N1CC2(CCN(C(=O)N3CCC(n4cc(-c5cc(OC)c6c(C#N)cnn6c5)cn4)CC3)CC2)C1 [Example 6, 6-(1-(1-(2-acryloyl-2,7-diazaspiro[3.5]nonane-7-carbonyl)piperidin-4-yl)-1H-pyrazol-4-yl)-4-methoxypyrazolo[1,5-a]pyridine-3-carbonitrile]
56 | 5 | 5 | C=CC(=O)Nc1ccc(CN2CCC(n3cc(-c4cc(OC)c5c(C#N)cnn5c4)cn3)CC2)cc1 [Example 9, N-(4-((4-(4-(3-cyano-4-methoxypyrazolo[1,5-a]pyridin-6-yl)-1H-pyrazol-1-yl)piperidin-1-yl)methyl)phenyl)acrylamide]
7 | 1 | 10 | C=CC(=O)N1CC(C(=O)N2CCC(n3cc(-c4cc(-c5ccccc5F)c5c(C#N)cnn5c4)cn3)CC2)C1 [Example 131, 6-(1-(1-(1-acryloylazetidine-3-carbonyl)piperidin-4-yl)-1H-pyrazol-4-yl)-4-(2-fluorophenyl)pyrazolo[1,5-a]pyridine-3-carbonitrile]
221 | 22 | 13 | C=CC(=O)N1CC(C)(C(=O)N2CCC(n3cc(-c4cc(OC)c5c(Cl)cnn5c4)cn3)CC2)C1 [Example 123, 1-(3-(4-(4-(3-chloro-4-methoxypyrazolo[1,5-a]pyridin-6-yl)-1H-pyrazol-1-yl)piperidine-1-carbonyl)-3-methylazetidin-1-yl)prop-2-en-1-one]
56 | 4 | 6 | C=CC(=O)N(C)c1ccc(CN2CCC(n3cc(-c4cc(OC)c5c(C#N)cnn5c4)cn3)CC2)cc1 [Example 10, N-(4-((4-(4-(3-cyano-4-methoxypyrazolo[1,5-a]pyridin-6-yl)-1H-pyrazol-1-yl)piperidin-1-yl)methyl)phenyl)-N-methylacrylamide]

Compound | IC50 [1] [nM] | IC50 [2] [nM] | IC50 [3] [nM]
C=CC(=O)N1CC(C(=O)N2CCC(n3cc(-c4cc(OCC(C)C)c5c(C#N)cnn5c4)cn3)CC2)C1 [Example 128, 6-(1-(1-(1-acryloylazetidine-3-carbonyl)piperidin-4-yl)-1H-pyrazol-4-yl)-4-isobutoxypyrazolo[1,5-a]pyridine-3-carbonitrile] | 38 | 6 | 5
C=CC(=O)N1CC(C(=O)N2CCC(n3cc(-c4cc(OC5CCC5)c5c(C#N)cnn5c4)cn3)CC2)C1 [Example 125, 6-(1-(1-(1-acryloylazetidine-3-carbonyl)piperidin-4-yl)-1H-pyrazol-4-yl)-4-cyclobutoxypyrazolo[1,5-a]pyridine-3-carbonitrile] | 13 | 2 | 3
